In ChEMBL document CHEMBL5724914, “Linking interpersonal differences in gut microbiota composition and drug biotransformation activity” (2024):

Assay: (§1) The drug is tested on Z-021 corresponding to metagenome with ENA study accession number: PRJEB37062 and ENA sample accession number: ERS12561820 for biotransformation under anaerobic condition. The drug concentrations were measured over 9 timepoints collected between 0 and 24 hours of incubation by liquid-chromatography-coupled mass spectrometry (LC–MS)
Conditions: 2 µM
Note: call rule not given here.

Compound	Bacterial Biotransformation
CCCC(=O)Nc1ccc(OCC(O)CNC(C)C)c(C(C)=O)c1 (stereo unspecified) [ACEBUTOLOL]	Compound metabolized
NS(=O)(=O)c1cc2c(cc1Cl)N=C(CSCc1ccccc1)NS2(=O)=O [BENZTHIAZIDE]	Compound metabolized
CN1CCN(C(=O)O[C@H]2c3nccnc3C(=O)N2c2ccc(Cl)cn2)CC1 [ESZOPICLONE]	Compound NOT metabolized
COc1ccccc1N1CCN(CC(O)COc2cccc3ccccc23)CC1 (stereo unspecified) [NAFTOPIDIL]	Compound metabolized

Assay: as §1, with “Z-008” for “Z-021”, “ERS12561808” for “ERS12561820”
Conditions: 2 µM

Compound	Bacterial Biotransformation
CCCC(=O)Nc1ccc(OCC(O)CNC(C)C)c(C(C)=O)c1 (stereo unspecified) [ACEBUTOLOL]	Compound NOT metabolized
NS(=O)(=O)c1cc2c(cc1Cl)N=C(CSCc1ccccc1)NS2(=O)=O [BENZTHIAZIDE]	Compound NOT metabolized
CN1CCN(C(=O)O[C@H]2c3nccnc3C(=O)N2c2ccc(Cl)cn2)CC1 [ESZOPICLONE]	Compound NOT metabolized
COc1ccccc1N1CCN(CC(O)COc2cccc3ccccc23)CC1 (stereo unspecified) [NAFTOPIDIL]	Compound NOT metabolized

Assay: (§2) The drug is tested on Z-003 corresponding to pig gut metagenome with ENA study accession number: PRJEB37062 and ENA sample accession number: ERS12561803 for biotransformation under anaerobic condition. The drug concentrations were measured over 9 timepoints collected between 0 and 24 hours of incubation by liquid-chromatography-coupled mass spectrometry (LC–MS)
Conditions: 2 µM

Compound	Bacterial Biotransformation
CCCC(=O)Nc1ccc(OCC(O)CNC(C)C)c(C(C)=O)c1 (stereo unspecified) [ACEBUTOLOL]	Compound metabolized
NS(=O)(=O)c1cc2c(cc1Cl)N=C(CSCc1ccccc1)NS2(=O)=O [BENZTHIAZIDE]	Compound NOT metabolized
CN1CCN(C(=O)O[C@H]2c3nccnc3C(=O)N2c2ccc(Cl)cn2)CC1 [ESZOPICLONE]	Compound NOT metabolized
COc1ccccc1N1CCN(CC(O)COc2cccc3ccccc23)CC1 (stereo unspecified) [NAFTOPIDIL]	Compound NOT metabolized

Assay: as §2, with “WLS-370” for “Z-003”, “human” for “pig”, “ERS12561793” for “ERS12561803”
Conditions: 2 µM

Compound	Bacterial Biotransformation
CCCC(=O)Nc1ccc(OCC(O)CNC(C)C)c(C(C)=O)c1 (stereo unspecified) [ACEBUTOLOL]	Compound NOT metabolized
NS(=O)(=O)c1cc2c(cc1Cl)N=C(CSCc1ccccc1)NS2(=O)=O [BENZTHIAZIDE]	Compound NOT metabolized
CN1CCN(C(=O)O[C@H]2c3nccnc3C(=O)N2c2ccc(Cl)cn2)CC1 [ESZOPICLONE]	Compound NOT metabolized
COc1ccccc1N1CCN(CC(O)COc2cccc3ccccc23)CC1 (stereo unspecified) [NAFTOPIDIL]	Compound NOT metabolized

Assay: as §2, with “WLS-090” for “Z-003”, “human” for “pig”, “ERS12561753” for “ERS12561803”
Conditions: 2 µM

Compound	Bacterial Biotransformation
CCCC(=O)Nc1ccc(OCC(O)CNC(C)C)c(C(C)=O)c1 (stereo unspecified) [ACEBUTOLOL]	Compound metabolized
NS(=O)(=O)c1cc2c(cc1Cl)N=C(CSCc1ccccc1)NS2(=O)=O [BENZTHIAZIDE]	Compound NOT metabolized
CN1CCN(C(=O)O[C@H]2c3nccnc3C(=O)N2c2ccc(Cl)cn2)CC1 [ESZOPICLONE]	Compound NOT metabolized
COc1ccccc1N1CCN(CC(O)COc2cccc3ccccc23)CC1 (stereo unspecified) [NAFTOPIDIL]	Compound NOT metabolized

Assay: as §2, with “WLS-077” for “Z-003”, “human” for “pig”, “ERS12561750” for “ERS12561803”
Conditions: 2 µM

Compound	Bacterial Biotransformation
CCCC(=O)Nc1ccc(OCC(O)CNC(C)C)c(C(C)=O)c1 (stereo unspecified) [ACEBUTOLOL]	Compound NOT metabolized
NS(=O)(=O)c1cc2c(cc1Cl)N=C(CSCc1ccccc1)NS2(=O)=O [BENZTHIAZIDE]	Compound NOT metabolized
CN1CCN(C(=O)O[C@H]2c3nccnc3C(=O)N2c2ccc(Cl)cn2)CC1 [ESZOPICLONE]	Compound NOT metabolized
COc1ccccc1N1CCN(CC(O)COc2cccc3ccccc23)CC1 (stereo unspecified) [NAFTOPIDIL]	Compound NOT metabolized

Assay: as §2, with “WLS-073” for “Z-003”, “human” for “pig”, “ERS12561749” for “ERS12561803”
Conditions: 2 µM

Compound	Bacterial Biotransformation
CCCC(=O)Nc1ccc(OCC(O)CNC(C)C)c(C(C)=O)c1 (stereo unspecified) [ACEBUTOLOL]	Compound NOT metabolized
NS(=O)(=O)c1cc2c(cc1Cl)N=C(CSCc1ccccc1)NS2(=O)=O [BENZTHIAZIDE]	Compound NOT metabolized
CN1CCN(C(=O)O[C@H]2c3nccnc3C(=O)N2c2ccc(Cl)cn2)CC1 [ESZOPICLONE]	Compound NOT metabolized
COc1ccccc1N1CCN(CC(O)COc2cccc3ccccc23)CC1 (stereo unspecified) [NAFTOPIDIL]	Compound NOT metabolized

Conditions: human gut metagenome, 24 h, 2 µM

Compound	Bacterial Biotransformation
CCCC(=O)Nc1ccc(OCC(O)CNC(C)C)c(C(C)=O)c1 (stereo unspecified) [ACEBUTOLOL]	Compound NOT metabolized
NS(=O)(=O)c1cc2c(cc1Cl)N=C(CSCc1ccccc1)NS2(=O)=O [BENZTHIAZIDE]	Compound NOT metabolized
CN1CCN(C(=O)O[C@H]2c3nccnc3C(=O)N2c2ccc(Cl)cn2)CC1 [ESZOPICLONE]	Compound NOT metabolized
COc1ccccc1N1CCN(CC(O)COc2cccc3ccccc23)CC1 (stereo unspecified) [NAFTOPIDIL]	Compound NOT metabolized

Conditions: human gut metagenome, 24 h, 2 µM
Remark: another data set of the same source

Compound	Bacterial Biotransformation
CCCC(=O)Nc1ccc(OCC(O)CNC(C)C)c(C(C)=O)c1 (stereo unspecified) [ACEBUTOLOL]	Compound NOT metabolized
NS(=O)(=O)c1cc2c(cc1Cl)N=C(CSCc1ccccc1)NS2(=O)=O [BENZTHIAZIDE]	Compound NOT metabolized
CN1CCN(C(=O)O[C@H]2c3nccnc3C(=O)N2c2ccc(Cl)cn2)CC1 [ESZOPICLONE]	Compound NOT metabolized
COc1ccccc1N1CCN(CC(O)COc2cccc3ccccc23)CC1 (stereo unspecified) [NAFTOPIDIL]	Compound NOT metabolized
